# Test results taken from patent US12662451B2, “Chemical compounds and uses thereof” (GLAXOSMITHKLINE INTELLECTUAL PROPERTY (NO.4) LIMITED, priority 2023, dated 2026).
# Where a name gives a salt, the structure may show the parent alone. Read-outs that look alike come from different tables or passages of the source.
# Legend:
# [1] = Cell culture media unbound percentage and stability by rapid equilibrium dialysis (Example C); type: in vitro ADME; conditions: bovine, cell assay medium (RPMI-1640 with 10% fetal bovine serum), pH 7.4, rapid equilibrium dialysis, 4 hours at 37° C., read-out: Cell Culture Media Binding (% unbound)
# How it was run: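 Compound spiked into cell culture medium at nominal 1 μM and dialysed against PBS (100 mM sodium phosphate + 150 mM NaCl, pH 7.4) by rapid equilibrium dialysis, triplicate, 4 h at 37° C with shaking. LC-MS/MS peak area ratios gave percent unbound (receiver/donor) and percent stability (240 min vs 0 min).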
# [2] = test system: SW48 human colorectal cancer cells (MSI-H cancer cells); test: SW48 cell viability, CellTiter-Glo, 120 hours (Example B); conditions: for CC50: Homo sapiens
# [3] = molecular target: T1, recombinant full-length WRN protein (1-1432) (Homo sapiens, UniProt Q14191); test: WRN unwinding activity, fluorogenic 384-well assay (Example A); type: biochemical; conditions: WRN unwinding activity, 4 hr; Table 2; read-out: 4 hr UNW pIC50 (converted)
# T1 construct: recombinant full-length WRN protein (1-1432)
# How it was run: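 200 pM enzyme (2× stock) preincubated with compound 4 h at ambient temperature, then 200 μM ATP and 12 nM quenched TAMRA-labelled dsDNA (2× stocks) added for 60 min; EDTA-quenched. Buffer 25 mM Tris pH 8.0, 5 mM NaCl, 2 mM MgCl2. Fluorescence at 525/598 nm; pIC50 from four-parameter fit.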
# [4] = test system: SW48 human colorectal cancer cells; test: Calculated free drug potency in SW48 cell assay, corrected with media free fraction (Example C); type: cell-based; conditions: Homo sapiens, SW48, SW48 pCC50 corrected with measured free fraction in cell assay media
# How it was run: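 Compound spiked at nominal 1 μM into cell assay medium and dialysed against PBS (100 mM sodium phosphate, 150 mM NaCl, pH 7.4) by rapid equilibrium dialysis, 4 h, 37 °C, shaking. Percent unbound from LC-MS/MS peak area ratios (240 min vs 0 min); cell assay concentrations corrected by this free fraction.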
# [5] = SW48, 120 h, read-out: SW48 pCC50, SW48 cell viability, 120 hours incubation (converted), Table 2
# [6] = SW48, read-out: SW48 pCC50, measured potency from Example B, as repeated in Table 3 (converted)
# T1 sequence (Q14191 whole entry): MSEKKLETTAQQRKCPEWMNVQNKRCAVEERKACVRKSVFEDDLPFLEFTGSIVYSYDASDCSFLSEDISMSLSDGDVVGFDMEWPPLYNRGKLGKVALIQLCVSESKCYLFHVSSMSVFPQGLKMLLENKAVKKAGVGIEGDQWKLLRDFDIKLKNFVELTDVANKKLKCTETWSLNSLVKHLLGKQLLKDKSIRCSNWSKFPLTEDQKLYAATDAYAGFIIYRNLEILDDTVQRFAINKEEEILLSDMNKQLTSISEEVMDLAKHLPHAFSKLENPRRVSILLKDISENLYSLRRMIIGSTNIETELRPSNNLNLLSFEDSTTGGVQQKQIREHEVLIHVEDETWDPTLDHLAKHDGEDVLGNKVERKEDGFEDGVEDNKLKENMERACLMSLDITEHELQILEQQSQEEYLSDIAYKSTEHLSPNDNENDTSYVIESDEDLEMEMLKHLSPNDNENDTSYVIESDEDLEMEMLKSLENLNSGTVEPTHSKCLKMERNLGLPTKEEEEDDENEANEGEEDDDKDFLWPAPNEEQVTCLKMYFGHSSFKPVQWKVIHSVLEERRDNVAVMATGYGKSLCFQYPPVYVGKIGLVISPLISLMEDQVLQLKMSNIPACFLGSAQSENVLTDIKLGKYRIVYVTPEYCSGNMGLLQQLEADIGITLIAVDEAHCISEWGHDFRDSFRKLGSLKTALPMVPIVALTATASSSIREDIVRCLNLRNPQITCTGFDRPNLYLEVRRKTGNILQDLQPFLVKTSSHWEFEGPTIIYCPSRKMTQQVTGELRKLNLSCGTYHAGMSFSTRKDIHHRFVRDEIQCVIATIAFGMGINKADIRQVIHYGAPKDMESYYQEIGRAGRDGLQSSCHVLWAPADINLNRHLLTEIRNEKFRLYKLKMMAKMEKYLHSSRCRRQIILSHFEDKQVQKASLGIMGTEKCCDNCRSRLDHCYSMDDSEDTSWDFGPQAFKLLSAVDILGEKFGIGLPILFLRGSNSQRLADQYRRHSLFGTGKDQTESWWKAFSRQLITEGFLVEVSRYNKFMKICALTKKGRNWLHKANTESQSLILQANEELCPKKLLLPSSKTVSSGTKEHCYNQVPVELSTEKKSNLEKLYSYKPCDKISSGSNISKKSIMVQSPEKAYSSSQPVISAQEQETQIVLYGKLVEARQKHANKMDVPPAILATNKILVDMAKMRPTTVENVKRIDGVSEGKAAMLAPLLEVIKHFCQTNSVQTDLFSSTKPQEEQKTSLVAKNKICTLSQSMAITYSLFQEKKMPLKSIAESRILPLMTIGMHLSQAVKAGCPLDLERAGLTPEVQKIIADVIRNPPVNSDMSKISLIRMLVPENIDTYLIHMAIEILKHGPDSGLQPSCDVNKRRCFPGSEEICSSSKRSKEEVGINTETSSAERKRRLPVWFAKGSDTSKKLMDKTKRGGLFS
SMILES,"fraction unbound at 4 h, 1 µM [1]",IC50 [3] [µM],"CC50 [2, 5] [µM]","CC50 [2, 6] [µM]",CC50 [4] [µM],"SW48 pCC50 ([2]; SW48 cell viability, 120 hours incubation, Table 2)"
"Cc1nc2cc(S(=O)(=O)N(C)c3ccc([C@H]4CCC[C@@H](C(=O)N[C@H]5CC[C@H](C(C)C)CC5)[C@@H]4C(=O)O)cc3)ccc2n1C [Example 180, (1R,2R,6S)-2-(((1r,4R)-4-isopropylcyclohexyl)carbamoyl)-6-(4-((N,1,2-trimethyl-1H-benzo[d]imidazole)-5-sulfonamido)phenyl)cyclohexane-1-carboxylic acid]",0.0357,0.00398,0.631,0.631,0.0224,
"CN1CCN(c2cc(S(=O)(=O)N(C)c3ccc([C@H]4CCC[C@@H](C(=O)Nc5ccc(C(F)(F)F)cc5F)[C@@H]4C(=O)O)cc3)cc3ccoc23)CC1 [Example 265, (1R,2R,6S)-2-((2-fluoro-4-(trifluoromethyl)phenyl)carbamoyl)-6-(4-((N-methyl-7-(4-methylpiperazin-1-yl)benzofuran)-5-sulfonamido)phenyl)cyclohexane-1-carboxylic acid]",0.115,0.00631,0.794,0.794,0.0912,
"CN1CCN(C)c2cc(S(=O)(=O)N(C)c3ccc([C@H]4CCC[C@@H](C(=O)Nc5ccc(C(F)(F)F)cc5F)[C@@H]4C(=O)O)cc3)ccc21 [Example 123, (1R,2R,6S)-2-((2-fluoro-4-(trifluoromethyl)phenyl)carbamoyl)-6-(4-((N,1,4-trimethyl-1,2,3,4-tetrahydroquinoxaline)-6-sulfonamido)phenyl)cyclohexane-1-carboxylic acid]",0.0071,0.00398,0.501,0.501,0.00355,
"CN[C@@H]1C[C@H](c2ccc(N(C)S(=O)(=O)c3ccc4c(c3)nc(C)n4C)cc2)[C@@H](C(=O)O)[C@H](C(=O)Nc2ccc(C(F)(F)F)cc2F)C1 (single isomer, unassigned) [Example 256]",0.284,0.00126,6.31,6.31,1.78,
"Cc1nc2cc(S(=O)(=O)N(C)c3ccc([C@H]4C[C@@H](OCC(F)F)C[C@@H](C(=O)Nc5ccc(C(F)(F)F)cc5F)[C@@H]4C(=O)O)cc3)ccc2n1C (relative stereo) [Example 159, rel-(1R,2R,4R,6S)-4-(2,2-difluoroethoxy)-2-((2-fluoro-4-(trifluoromethyl)phenyl)carbamoyl)-6-(4-((N,1,2-trimethyl-1H-benzo[d]imidazole)-5-sulfonamido)phenyl)cyclohexane-1-carboxylic acid]",0.0991,0.00251,0.2,0.2,0.02,
"Cc1nc2cc(S(=O)(=O)N(C)c3ccc([C@@H]4CCC[C@H](COc5ccc(C(F)(F)F)cc5)[C@H]4C(=O)O)cc3)cc([C@H]3CCCNC3)c2n1C (stereo in doubt) [Example 208, rel-(1R,2R,6S)-2-((4-(trifluoromethyl)phenoxy)methyl)-6-(4-((N,1,2-trimethyl-7-((R)-piperidin-3-yl)-1H-benzo[d]imidazole)-5-sulfonamido)phenyl)cyclohexane-1-carboxylic acid, hydrochloride]",0.0289,0.00158,1.26,1.26,0.0363,
CN(c1ccc([C@H]2CCC[C@@H](C(=O)Nc3ccc(C(F)(F)F)cc3F)[C@@H]2C(=O)O)cc1)S(=O)(=O)c1cccc([C@H]2CCCNC2)c1 [Example 263],0.278,0.00158,0.2,0.2,0.055,
"CN(c1ccc([C@H]2CCC[C@@H](C(=O)Nc3ccc(C(F)(F)F)cc3F)[C@@H]2C(=O)O)cc1)S(=O)(=O)c1cc(I)c2occc2c1 [Example 94, (1R,2R,6S)-2-((2-fluoro-4-(trifluoromethyl)phenyl)carbamoyl)-6-(4-((7-iodo-N-methylbenzofuran)-5-sulfonamido)phenyl)cyclohexane-1-carboxylic acid]",0.0014,0.0501,,3.98,0.00562,5.4
"CN(c1ccc([C@H]2CCC[C@@H](C(=O)Nc3ccc(C(F)(F)F)cc3F)[C@@H]2C(=O)O)cc1)S(=O)(=O)c1cccc(C2CCNCC2)c1 [Example 261, (1R,2R,6S)-2-((2-fluoro-4-(trifluoromethyl)phenyl)carbamoyl)-6-(4-((N-methyl-3-(piperidin-4-yl)phenyl)sulfonamido)phenyl)cyclohexane-1-carboxylic acid]",0.311,0.00158,1,1,0.309,

# More lines, main results first:
"fraction unbound at 4 h, 1 µM [1]",IC50 [3] [µM],SMILES,"CC50 [2, 5] [µM]","CC50 [2, 6] [µM]",CC50 [4] [µM],"SW48 pCC50 ([2]; SW48 cell viability, 120 hours incubation, Table 2)"
0.0856,0.00251,"Cc1nc2cc(S(=O)(=O)N(C)c3ccc([C@H]4C[C@@H](OC(C)C)C[C@@H](C(=O)Nc5ccc(C(F)(F)F)cc5F)[C@@H]4C(=O)O)cc3)ccc2n1C (stereo in doubt) [Example 311, rel-(1R,2R,4R,6S)-2-((2-fluoro-4-(trifluoromethyl)phenyl)carbamoyl)-4-isopropoxy-6-(4-((N,1,2-trimethyl-1H-benzo[d]imidazole)-5-sulfonamido)phenyl)cyclohexane-1-carboxylic acid]",0.251,0.251,0.0214,
0.235,0.00501,"Cc1nc2cc(S(=O)(=O)N(C)c3ccc([C@@H]4C[C@@H]5COC[C@@H]5[C@@H](C(=O)Nc5ccc(C(F)(F)F)cc5F)[C@@H]4C(=O)O)cc3)ccc2n1C (single isomer, unassigned) [Example 389]",2.51,2.51,0.589,
0.0979,0.00158,Cc1nc2cc(S(=O)(=O)N(C)c3ccc([C@H]4CCC[C@@H](C(=O)Nc5ccc(C(F)(F)F)cc5F)[C@@H]4C(=O)O)cc3Cl)ccc2n1C [Example 296],1.58,1.58,0.155,
0.197,0.000631,"Cc1nc2cc(S(=O)(=O)N(C)c3ccc([C@H]4CCC[C@@H](C(=O)Nc5ccc(C(F)(F)F)cc5F)[C@@H]4C(=O)O)cc3)ccc2n1CCN [Example 277, (1R,2S,6R)-2-(4-((1-(2-aminoethyl)-N,2-dimethyl-1H-benzo[d]imidazole)-5-sulfonamido)phenyl)-6-((2-fluoro-4-(trifluoromethyl)phenyl)carbamoyl)cyclohexane-1-carboxylic acid]",1.58,1.58,0.309,
0.208,0.000631,"Cc1nc2cc(S(=O)(=O)N(C)c3ccc([C@H]4CCC[C@@H](C(=O)Nc5ccc(C(F)(F)F)cc5F)[C@@H]4C(=O)O)cc3)ccc2n1CCN(C)C [Example 278, (1R,2S,6R)-2-(4-((1-(2-(dimethylamino)ethyl)-N,2-dimethyl-1H-benzo[d]imidazole)-5-sulfonamido)phenyl)-6-((2-fluoro-4-(trifluoromethyl)phenyl)carbamoyl)cyclohexane-1-carboxylic acid]",0.126,0.126,0.0263,
0.362,0.02,"Cc1nc2cc(S(=O)(=O)N(C)c3ccc([C@@H]4C[C@H](O[C@@H]5CCOC5)C[C@H](C(=O)Nc5ccc(C(F)(F)F)cc5F)[C@H]4C(=O)O)cc3)ccc2n1C (stereo in doubt) [Example 322, (1R*,2R*,4R*,6S*)-2-((2-fluoro-4-(trifluoromethyl)phenyl)carbamoyl)-4-(((R)-tetrahydrofuran-3-yl)oxy)-6-(4-((N,1,2-trimethyl-1H-benzo[d]imidazole)-5-sulfonamido)phenyl)cyclohexane-1-carboxylic acid]",10,,3.63,
0.236,0.00158,"CN(C)CCc1nc2cc(S(=O)(=O)N(C)c3ccc([C@H]4CCC[C@@H](C(=O)Nc5ccc(C(F)(F)F)cc5F)[C@@H]4C(=O)O)cc3)ccc2n1C [Example 272, (1R,2S,6R)-2-(4-((2-(2-(dimethylamino)ethyl)-N,1-dimethyl-1H-benzo[d]imidazole)-5-sulfonamido)phenyl)-6-((2-fluoro-4-(trifluoromethyl)phenyl)carbamoyl)cyclohexane-1-carboxylic acid]",0.158,0.158,0.0372,
